Here are results for 26 molecules from US20230129359A1, “MUSCARINIC RECEPTOR 4 ANTAGONISTS AND METHODS OF USE” (Neurocrine Biosciences, Inc., priority 2020, published 2023).

The structures appear in SMILES notation.

For this test, the target named is T1, human M4 receptor (Homo sapiens, UniProt P08173).
T1 construct: expressed in transfected cells; host or cells: CHO cells
T1 sequence (P08173 1-479): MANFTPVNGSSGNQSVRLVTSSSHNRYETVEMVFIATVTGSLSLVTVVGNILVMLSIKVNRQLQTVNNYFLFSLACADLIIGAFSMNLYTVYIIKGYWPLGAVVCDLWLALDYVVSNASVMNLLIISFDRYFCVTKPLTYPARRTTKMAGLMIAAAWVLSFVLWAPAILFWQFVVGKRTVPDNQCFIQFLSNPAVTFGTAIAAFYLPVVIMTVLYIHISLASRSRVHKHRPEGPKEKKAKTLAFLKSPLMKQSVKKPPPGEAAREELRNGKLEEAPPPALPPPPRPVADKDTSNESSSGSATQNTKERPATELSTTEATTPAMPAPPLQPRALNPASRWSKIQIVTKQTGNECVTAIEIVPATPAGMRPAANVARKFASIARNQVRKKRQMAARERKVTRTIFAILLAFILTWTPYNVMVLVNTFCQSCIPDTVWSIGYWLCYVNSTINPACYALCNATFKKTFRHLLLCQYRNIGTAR
The experiment in a line: Radioligand ([3H]N-methylscopolamine) binding assay, membranes from CHO cells expressing human M4 receptor. The settings on record: Ki against human M4 receptor; membranes from CHO cells; tritiated N-methylscopolamine 1.5 nM; read-out: K. A digest of the protocol: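 Ki values derive from displacement of tritiated N-methylscopolamine (1.5 nM) from human M4 receptor in CHO membranes. Membranes, radioligand and twelve-point compound series were incubated together at 37 °C for 90 minutes in pH 7.4 HEPES/NaCl/MgCl2/EDTA buffer. Rapid vacuum filtration over polyethylenimine-pretreated filters was followed by radioactivity counting.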
For `C[C@@H]1CN(c2ncc(C(F)(F)F)cn2)CCN1C(=O)OC1CC2(C1)CN(Cc1ccc(Cl)cc1)C2` [Compound 478, 2-[(4-chlorophenyl)methyl]-2-azaspiro[3.3]heptan-6-yl (2R)-2-methyl-4-[5-(trifluoromethyl)pyrimidin-2-yl]piperazine-1-carboxylate], the Ki was in the range of 100 to 1000 nM. The value for `C[C@@H]1CN(c2nc3cc(F)ccc3o2)C[C@@H](C)N1C(=O)OC1CC2(C1)CN(Cc1ccccc1)C2` [Compound 442, 2-benzyl-2-azaspiro[3.3]heptan-6-yl (2R,6R)-4-(5-fluoro-1,3-benzoxazol-2-yl)-2,6-dimethylpiperazine-1-carboxylate] was 100 to 1000 nM; that for `C[C@@H]1CN(c2ccc(F)c(C#N)c2)CCN1C(=O)NC1CC2(C1)CN(Cc1ccccc1)C2` [Compound 12, (2R)-N-{2-benzyl-2-azaspiro[3.3]heptan-6-yl}-4-(3-cyano-4-fluorophenyl)-2-methylpiperazine-1-carboxamide] was 10 to 100 nM.

On to `C[C@@H]1CN(c2cnc(C(F)(F)F)cn2)C[C@@H](C)N1C(=O)NC1CC2(C1)CN(Cc1ccc(Cl)cc1)C2` [Compound 259, (2R,6R)-N-{2-[(4-chlorophenyl)methyl]-2-azaspiro[3.3]heptan-6-yl}-2,6-dimethyl-4-[5-(trifluoromethyl)pyrazin-2-yl]piperazine-1-carboxamide], for which the Ki is 100 to 1000 nM. As for `Cc1nc(C#N)cnc1N1C[C@@H](C)N(C(=O)OC2CC3(C2)CN(Cc2ccccc2)C3)[C@@H](C)C1` [Compound 181, 2-benzyl-2-azaspiro[3.3]heptan-6-yl (2R,6S)-4-(5-cyano-3-methylpyrazin-2-yl)-2,6-dimethylpiperazine-1-carboxylate], the figure is 100 to 1000 nM; as for `C[C@@H]1CN(c2ncc(C(F)(F)F)cn2)C[C@H](C)N1C(=O)NC1CC2(C1)CN(Cc1ccncc1)C2` [Compound 317, (2R,6S)-2,6-dimethyl-N-[2-(pyridin-4-ylmethyl)-2-azaspiro[3.3]heptan-6-yl]-4-[5-(trifluoromethyl)pyrimidin-2-yl]piperazine-1-carboxamide], 100 to 1000 nM; as for `C[C@@H]1CN(c2ncc(C(F)(F)F)cn2)C[C@@H](C)N1C(=O)OC1(C)CC2(CN(Cc3ccccc3)C2)C1` [Compound 355, 2-benzyl-6-methyl-2-azaspiro[3.3]heptan-6-yl (2R,6R)-2,6-dimethyl-4-[5-(trifluoromethyl)pyrimidin-2-yl]piperazine-1-carboxylate], 10 to 100 nM.

For the molecule `O=C(OC1CC2(C1)CN(Cc1ccccc1)C2)N1CC2COCC(C1)N2c1ncc(C(F)(F)F)cn1` [Compound 495, 2-benzyl-2-azaspiro[3.3]heptan-6-yl 9-[5-(trifluoromethyl)pyrimidin-2-yl]-3-oxa-7,9-diazabicyclo[3.3.1]hnonane-7-carboxylate], the Ki fell in the range of 10 to 100 nM. The value for `C[C@@H]1CN(c2ncc(C#N)cn2)C[C@H](C)N1C(=O)NC1CC2(C1)CN(Cc1ccccc1)C2` [Compound 66] was 100 to 1000 nM.

`COC(=O)c1ccc(CN2CC3(CC(NC(=O)N4[C@H](C)CN(c5ncc(C(F)(F)F)cn5)C[C@@H]4C)C3)C2)cc1` [Compound 320, methyl 4-[(6-{[(2R,6S)-2,6-dimethyl-4-[5-(trifluoromethyl)pyrimidin-2-yl]piperazine-1-carbonyl]amino}-2-azaspiro[3.3]heptan-2-yl)methyl]benzoate]: the Ki was in the range of 100 to 1000 nM. Regarding `O=C(OC1CC2(C1)CN(Cc1ccccc1)C2)N1CCN(c2ccc(C(F)(F)F)cc2)CC1` [Compound 125, 2-benzyl-2-azaspiro[3.3]heptan-6-yl 4-[4-(trifluoromethyl)phenyl]pipera-zine-1-carboxylate], the Ki is 100 to 1000 nM. As for `C[C@@H]1CN(c2cnc(OC(F)(F)F)cn2)C[C@@H](C)N1C(=O)OC1CC2(C1)CN(Cc1ccccc1)C2` [Compound 203, 2-benzyl-2-azaspiro[3.3]heptan-6-yl (2R,6R)-2,6-dimethyl-4-[5-(trifluoromethoxy)pyrazin-2-yl]piperazine-1-carboxylate], the figure is less than 10 nM. As for `C[C@@H]1CN(c2cnc(C(F)(F)F)cn2)C[C@@H](C)N1C(=O)OCC1CC2(C1)CN(Cc1ccccc1)C2` [Compound 143, {2-benzyl-2-azaspiro[3.3]heptan-6-yl}methyl (2R,6R)-2,6-dimethyl-4-[5-(trifluoromethyl)pyrazin-2-yl]piperazine-1-carboxylate], the figure is 100 to 1000 nM; as for `C[C@@H]1CN(c2ncc(C(F)(F)F)cn2)C[C@H](C)N1C(=O)OC1CC2(C1)CN(CC1CCCCC1)C2` [Compound 154, 2-(cyclohexylmethyl)-2-azaspiro[3.3]heptan-6-yl (2R,6S)-2,6-dimethyl-4-[5-(trifluoromethyl)pyrimidin-2-yl]piperazine-1-carboxylate], 10 to 100 nM; as for `C[C@@H]1CN(c2ncc(C(F)(F)F)cn2)[C@@H](C)CN1C(=O)NC1CC2(C1)CN(Cc1ccc(Cl)cc1)C2` [Compound 256, (2R,5S)-N-{2-[(4-chlorophenyl)methyl]-2-azaspiro[3.3]heptan-6-yl}-2,5-dimethyl-4-[5-(trifluoromethyl)pyrimidin-2-yl]piperazine-1-carboxamide], less than 10 nM. `C[C@@H]1CN(c2nc3cc(F)c(F)cc3s2)C[C@H](C)N1C(=O)OC1CC2(C1)CN(Cc1ccccc1)C2` [Compound 447, 2-benzyl-2-azaspiro[3.3]heptan-6-yl (2R,6S)-4-(5,6-difluoro-1,3-benzothiazol-2-yl)-2,6-dimethylpiperazine-1-carboxylate]: the Ki is less than 10 nM. As to `C[C@@H]1CN(c2nc3ncc(C(F)(F)F)cc3s2)[C@@H](C)CN1C(=O)OC1CC2(C1)CN(Cc1ccccc1)C2` [Compound 433, 2-benzyl-2-azaspiro[3.3]heptan-6-yl (2R,5S)-2,5-dimethyl-4-[6-(trifluoromethyl)-[1,3]thiazolo[4,5-b]pyridin-2-yl]piperazine-1-carboxylate], the Ki lay in the range of 10 to 100 nM. As for `C[C@@H]1CN(c2ncc(C#N)cn2)[C@@H](C)CN1C(=O)NC1CC2(C1)CN(Cc1ccccc1)C2` [Compound 26, (2R,5S)-N-{2-benzyl-2-azaspiro[3.3]heptan-6-yl}-4-(5-cyanopyrimidin-2-yl)-2,5-dimethylpiperazine-1-carboxamide], the figure is 10 to 100 nM. As for `C[C@@H]1CN(c2cnc(C(F)(F)F)cn2)C[C@@H](C)N1C(=O)OC1CC2(C1)CN(Cc1ccccc1)C2` [Compound 142, 2-benzyl-2-azaspiro[3.3]heptan-6-yl (2R,6R)-2,6-dimethyl-4-[5-(trifluoromethyl)pyrazin-2-yl]piperazine-1-carboxylate], the figure is 10 to 100 nM; as for `C[C@@H]1CN(c2ncc(C#N)cn2)CCN1C(=O)OC1CC2(C1)CN(Cc1ccc(Cl)cc1)C2` [Compound 483, 2-[(4-chlorophenyl)methyl]-2-azaspiro[3.3]heptan-6-yl (2R)-4-(5-cyanopyrimidin-2-yl)-2-methylpiperazine-1-carboxylate], 100 to 1000 nM. The value for `C[C@@H]1CN(c2nc3cc(F)ccc3o2)[C@@H](C)CN1C(=O)OC1CC2(C1)CN(Cc1ccccc1)C2` [Compound 443, 2-benzyl-2-azaspiro[3.3]heptan-6-yl (2R,5S)-4-(5-fluoro-1,3-benzoxazol-2-yl)-2,5-dimethylpiperazine-1-carboxylate] was 10 to 100 nM. As for `C[C@@H]1CN(c2cnc(C(F)(F)F)cn2)C[C@H](C)N1C(=O)OC1(C(F)F)CC2(CN(Cc3ccccc3)C2)C1` [Compound 342, 2-benzyl-6-(difluoromethyl)-2-azaspiro[3.3]heptan-6-yl (2R,6S)-2,6-dimethyl-4-[5-(trifluoromethyl)pyrazin-2-yl]piperazine-1-carboxylate], the Ki lay within 100 to 1000 nM.

For the molecule `C[C@@H]1CN(c2ncc(C(F)(F)F)cc2F)C[C@H](C)N1C(=O)OC1CC2(C1)CN(Cc1ccccc1)C2` [Compound 277, 2-benzyl-2-azaspiro[3.3]heptan-6-yl (2R,6S)-4-[3-fluoro-5-(trifluoromethyl)pyridin-2-yl]-2,6-dimethylpiperazine-1-carboxylate], the Ki was less than 10 nM. As for `C[C@@H]1CN(c2nc3ccc(F)cc3s2)C[C@H](C)N1C(=O)OC1CC2(C1)CN(Cc1ccc(F)cc1)C2` [Compound 381, 2-[(4-fluorophenyl)methyl]-2-azaspiro[3.3]heptan-6-yl (2R,6S)-4-(6-fluoro-1,3-benzothiazol-2-yl)-2,6-dimethylpiperazine-1-carboxylate], the figure is less than 10 nM; as for `C[C@H]1CN(C(=O)OC2CC3(C2)CN(Cc2ccccc2)C3)CCN1c1ncc(C(F)(F)F)cn1` [Compound 123, 2-benzyl-2-azaspiro[3.3]heptan-6-yl (3S)-3-methyl-4-[5-(trifluoromethyl)pyrimidin-2-yl]piperazine-1-carboxylate], less than 10 nM. As for `C[C@@H]1CN(c2ncc(C(F)(F)F)cn2)C[C@H](C)N1C(=O)NC1CC2(C1)CN(Cc1ccc(Cl)s1)C2` [Compound 340, (2R,6S)-N-{2-[(5-chlorothiophen-2-yl)methyl]-2-azaspiro[3.3]heptan-6-yl}-2,6-dimethyl-4-[5-(trifluoromethyl)pyrimidin-2-yl]piperazine-1-carboxamide], the figure is less than 10 nM.
